Test results taken from patent US20020055528A1, “Artemisinin analogs having antimalarial, antiproliferative, and antitumor activities and chemoselective methods of making the same” (priority 1999, published 2002).

Columns and labels:
[1] = test system: chloroquine-sensitive P. falciparum (NF54); test: Antimalarial screening, [3H]hypoxanthine incorporation; assay type: cell-based, Plasmodium falciparum; conditions: Plasmodium falciparum, NF54, chloroquine-sensitive P. falciparum (NF54); read-out: IC50
Procedure: Activity was determined by measuring the incorporation of [^3H]hypoxanthine, by the methods of Desjardins and Milhouse, with the following modifications, see […].; Haynes, […]. Antimicrob. Agents Chemother., 16: 710 (1979); Milhous, W. K.; Weatherly, […].; Antimicrob. Agents Chemother., 27: 525 (1985). […] Calbiochem #391338), 27 mM NaHCO3 (Gibco BRL # 11810-025), and 10% heat-inactivated human type O+serum (Interstate Blood Bank, Inc.), under 3% O2, 4% CO2, and 93% N2-Parasitemia was maintained at 0.05-3% and doubling time at approximately 15 hours by twice weekly change of medium and replenishment with fresh erythrocytes. […] Sigma-Aldrich #27,043-1). DMSO solutions were diluted 500-fold in medium, serially diluted in 0.2% DMSO in medium (to maintain constant solvent concentration), then 100 μL aliquots were pipetted into microtiter plate wells (Costar3595). […] Cells were harvested (Brandel MB-48R) onto GF-C glass filters (Brandel). The filters were washed five times with 3 mL water per sample spot, dried under a heat lamp, and counted (Beckman Model LS-6500) in scintillation cocktail (ICN Cytoscint). Decays per minute (dpm) values were downloaded and analyzed (Power Macintosh 7200/90; Microsoft Excel 5.0), to yield the mean and standard deviation at each drug concentration.

K-562 = test: NCI 60 cell line screen (SRB), Leukemia; assay type: cell-based
EKVX = test: NCI 60 cell line screen (SRB), Non-Small Cell Lung Cancer; assay type: cell-based
NCI-H226 = test: as above; assay type: cell-based
NCI-H23 = test: as above; assay type: cell-based; conditions: PG=0
NCI-H322M = test: as above; assay type: cell-based
KM12 = test: NCI 60 cell line screen (SRB), Colon Cancer; assay type: cell-based
SW-620 = test: NCI 60 cell line screen (SRB), Colon Cancer; assay type: cell-based; conditions: PG=0
SK-MEL-28 = test: NCI 60 cell line screen (SRB), Melanoma; assay type: cell-based
OVCAR-5 = test: NCI 60 cell line screen (SRB), Ovarian Cancer; assay type: cell-based
A498 = test: NCI 60 cell line screen (SRB), Renal Cancer; assay type: cell-based
[2] = test system: MB231/ATCC (second line of the wrapped label, with values of its own); test: NCI 60 cell line screen (SRB), Breast Cancer; assay type: cell-based
60 cell line panel = conditions: 60 lines, nine subpanels; later anticancer studies; cited from earlier work
P. berghei = conditions: P. berghei-infected mice; parasitemia 90 percent suppressed; cited from earlier work
P388 leukemia = conditions: NCI Report on NSC 369397; cited from earlier work
[3] = test system: P. vivax and P. falciparum; conditions: 2099 cases of malaria, different dosage forms; cited from earlier work
P. falciparum = conditions: two Hanian strains; compared with chloroquine; cited from earlier work
[4] = cited from earlier work

C[C@@H]1CC[C@H]2[C@@H](C)C(=O)O[C@@H]3O[C@]4(C)CC[C@@H]1[C@]32OO4 [Artemisinin, artemisinin]
−4.33 log10M: Log10GI50 (K-562; PG=+50)
inactive: activity in words (P388 leukemia)
−4.00 log10M: Log10TGI (K-562; PG=0)
comparable to that of chloroquine: potency in words (P. falciparum)
very little anticancer activity: anticancer activity in words (60 cell line panel)
−4.17 log10M: Log10GI50 (EKVX; PG=+50)
insolubility in water: solubility in water in words [4]
clinical cure of all patients: clinical outcome [3]
>−4.00 log10M: Log10GI50 (K-562; Table IV (LC50, PG=−50)) | Log10TGI (EKVX; PG=0) | Log10GI50 (EKVX; Table IV (LC50, PG=−50)) | Log10TGI (NCI-H226; PG=0) | Log10GI50 (NCI-H226; PG=+50) | Log10GI50 (NCI-H226; Table IV (LC50, PG=−50)) | Log10TGI (NCI-H23) | Log10TGI (NCI-H322M; PG=0) | Log10GI50 (NCI-H322M; PG=+50) | Log10TGI (KM12; PG=0) | Log10GI50 (KM12; PG=+50) | Log10GI50 (KM12; Table IV (LC50, PG=−50)) | Log10TGI (SW-620) | Log10TGI (SK-MEL-28; PG=0) | Log10GI50 (SK-MEL-28; PG=+50) | Log10GI50 (SK-MEL-28; Table IV (LC50, PG=−50)) | Log10TGI (OVCAR-5; PG=0) | Log10GI50 (OVCAR-5; PG=+50) | Log10GI50 (OVCAR-5; Table IV (LC50, PG=−50)) | Log10TGI (A498; PG=0) | Log10GI50 (A498; PG=+50) | Log10GI50 (A498; Table IV (LC50, PG=−50)) | Log10TGI ([2]; PG=0) | Log10GI50 ([2]; PG=+50) | Log10GI50 ([2]; Table IV (LC50, PG=−50))
6.20 mg/kg: SD90 (P. berghei)
10 nM: IC50 [1]
